Experimental data as given in patent US10981893B2, “Therapeutic inhibitory compounds” (Attune Pharmaceuticals, Inc., priority 2015, dated 2021).

Legend:
human Plasma Kallikrein = human Plasma Kallikrein (Homo sapiens (Human), UniProt P03952); assay: In vitro enzyme inhibition of human plasma kallikrein (Pro-Phe-Arg-AMC cleavage); assay type: biochemical; details: PFR-AMC substrate, 37° C., read-out: hPK IC50
Procedure: The ability of the compounds disclosed herein to inhibit human plasma kallikrein activity was quantified according to the procedures below.
A 10 mM solution of the test compound was made in DMSO. This solution was serially diluted 1:5 in DMSO to yield 2000, 400, 80, 16, 3.2, 0.64, 0.128, 0.0256 and 0.00512 μM compound test solutions. A control tube containing only DMSO is included. 16 μL of each compound test solution was combined with 384 μL of assay buffer (50 mM Tris-HCl pH 7.5, 150 mM NaCl, 0.01% Triton X-100) to yield a “4× test compound buffer stock”.
Separately, a 40 nM solution of human Plasma Kallikrein (Abcam) and a 93.6 μM solution Pro-Phe-Arg-AMC (Bachem) were made using assay buffer. These solutions are hereby refereed to as 4×hPK and 2×PFR-AMC, respectively.
60 μL of each 4× test compound buffer stock was combined with 60 μL of 4× hPK to yield 120 μL of “2× test compound buffer stock/2×hPK”. 50 μL was removed from this mixture and placed into duplicate wells on a Microfluor 1 Black U-bottom microtiter plate (Thermo Scientific). This plate was incubated for 5 minutes at 37° C. To each well, 50 μL of pre-warmed 2×PFR-AMC was added to start the enzymatic reaction. Cleavage of PFR-AMC was monitored in a Biotek Synergy H4 reader set at 37° C. Readings are taken every 43 seconds for 1 hour. The highest mean velocity over 20 reads (˜15 minutes) is used to calculate the IC50. The IC50 is calculated using the Gen5 (Biotek Instruments).
The ability of the compounds in Table 1 to inhibit human plasma kallikrein activity was determined and the data is shown in Table 3.

[1] = target: kallikrein in human plasma (Homo sapiens (Human), UniProt P03952); assay: In vitro cellular assay / contact assay: kallikrein activity in ellagic acid-activated human plasma (Z-FR-2-AMC substrate); assay type: biochemical; details: human plasma activated with ellagic acid, 37° C.
Procedure: The ability of the compounds disclosed herein to inhibit cellular kallikrein activity was quantified and the respective EC50 value was determined.
Plasma kallikrein inhibitor C1NH (Athens Research & Technology, Cat #16-16-031509); Ellagic acid (Sigma, E2250); Substrate Z—FR-2-AMC (GL Biochem, Cat #55352); Nunc™ 96-Well Polypropylene MicroWell™ Plates (Nunc, Cat #267342)
All dilutions were prepared in an assay buffer comprising 50 mM Tris-HCl pH 7.2, 150 mM NaCl, and 0.01% Triton X-100.
Four fold serial dilutions were prepared from a 107.53 μM plasma kallikrein inhibitor C1NH stock solution, to yield ten solutions with concentrations between 20 μM and […]. Similarly, four fold serial dilutions were prepared from 10 mM stock solutions of various test compounds, to yield ten solutions with concentrations between 4 mM and 0.015 μM. The ten solutions of the test compounds, prepared by serial dilution, were further diluted 50-fold in the assay buffer.
Human plasma is thawed on ice and centrifuged for 15 min at 4° C. to remove platelets. A 1 mM stock solution of ellagic acid is diluted to 8 μM and mixed with human plasma, after removing platelets, at a ratio of 1:0.8. The mixture of human plasma and ellagic acid was further diluted 32-fold in the assay buffer, to yield the final mixture for use in the inhibition assay.
A 22.5 μL volume of the final mixture of human plasma and ellagic acid was added to a 96-well microwell plate and the plate was incubated for 15 min at 37° C.
The test compounds at various concentrations, also prepared by serial dilutions as described above, are added to the test wells. The volume of test compound added to each test well was 12.5 μL, to yield final concentrations of 20 μM, 5 μM, 1.25 μM, 312.5 nM, 78.125 nM, 19.531 nM, 4.883 nM, 1.221 nM, 0.305 nM, and 0.076 nM. Each test compound concentration was tested in duplicates.
In addition to the inhibitor control and test wells, the 96 well assay plate includes positive control wells which contained the mixture of human plasma and ellagic acid without C1NH inhibitor or test compounds, and background wells which contained neither the mixture of human plasma and ellagic acid nor the test compounds. The total volume of liquid in positive control and background wells was brought up to 35 μL, using the assay buffer.
The assay plate containing C1NH inhibitors and test compounds mixed with human plasma and ellagic acid and appropriate controls was incubated at 37° C. for 5 min. A 10 mM stock solution of substrate Z—FR-2-AMC was diluted to 133.2 μM in the assay buffer, and 15 μL of the diluted substrate was added to each well, to yield a final substrate concentration of 40 μM in each well. […]
The enzyme reaction was quantified by immediate kinetic reading of the assay plate using excitation/emission wavelengths of 330 nm/440 nm respectively. Fluorescence intensity was recorded for 60 min, using a time interval of 43 sec.
The inhibition activity of the test compounds were evaluated using the IC50 values, calculated according to the dose-response curve of the test compounds, fitted using the “log(inhibitor)-response(variable slope)” equation in GraphPadPrism software (GraphPad Software, Inc.).
The percentage inhibition was calculated using the following equation:
[formula] where, Mean(BG) is the average value of the fluorescence intensity of the background wells and Mean(PC) is the average value of the fluorescence intensity of the positive control wells. […]

Sequence of kallikrein in human plasma (P03952 391-638 limits assumed): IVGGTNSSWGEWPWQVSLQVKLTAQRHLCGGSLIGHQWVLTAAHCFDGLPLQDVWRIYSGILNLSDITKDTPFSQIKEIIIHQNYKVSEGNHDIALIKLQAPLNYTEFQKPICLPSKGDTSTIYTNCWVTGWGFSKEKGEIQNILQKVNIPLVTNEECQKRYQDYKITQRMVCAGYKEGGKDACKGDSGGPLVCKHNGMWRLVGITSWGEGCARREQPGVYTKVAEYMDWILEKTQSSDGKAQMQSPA
Sequence of kallikrein in human plasma (P03952 20-390 partner limits assumed): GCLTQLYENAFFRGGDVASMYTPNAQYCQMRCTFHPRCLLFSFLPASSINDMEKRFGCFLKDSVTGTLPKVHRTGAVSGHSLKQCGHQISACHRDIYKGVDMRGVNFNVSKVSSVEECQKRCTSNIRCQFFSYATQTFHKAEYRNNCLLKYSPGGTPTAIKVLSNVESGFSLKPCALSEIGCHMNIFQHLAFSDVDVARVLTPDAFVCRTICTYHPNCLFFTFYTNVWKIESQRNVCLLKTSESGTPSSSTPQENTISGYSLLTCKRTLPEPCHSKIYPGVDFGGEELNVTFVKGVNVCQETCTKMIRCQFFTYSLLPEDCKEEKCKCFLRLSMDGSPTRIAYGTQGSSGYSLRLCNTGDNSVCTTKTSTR
Sequence of human Plasma Kallikrein (P03952 391-638 limits assumed): as the sequence (P03952 391-638 limits assumed) above
Sequence of human Plasma Kallikrein (P03952 20-390 partner limits assumed): as the sequence (P03952 20-390 partner limits assumed) above

Row | IC50 (human Plasma Kallikrein) [nM] | EC50 [1] [nM] | SMILES
1 | ≤ 100 | ≤ 100 | Cc1nc(N)ccc1CNC(=O)c1ccnc(Cc2ccc(Cn3ccccc3=O)c(S(C)(=O)=O)c2)c1 [Example 23, N-((6-amino-2-methylpyridin-3-yl)methyl)-2-(3-(methylsulfonyl)-4-((2-oxopyridin-1(2H)-yl)methyl)benzyl)isonicotinamide]
2 | 100 to 1000 |  | CS(=O)(=O)c1cc(Cc2cc(C(=O)NCc3ccc4c(N)noc4c3)ccn2)ccc1Cn1ccccc1=O [Example 20, N-((3-aminobenzo[d]isoxazol-6-yl)methyl)-2-(3-(methylsulfonyl)-4-((2-oxopyridin-1(2H)-yl)methyl)benzyl)isonicotinamide]
3 | 1000 to 10000 |  | O=C(NC(C(=O)O)c1n[nH]c2ccc(Cl)cc12)c1cncc(Cc2ccc(Cn3ccccc3=O)cc2)c1 (stereo not drawn) [Example 12, 2-(5-chloro-1H-indazol-3-yl)-2-(5-(4-((2-oxopyridin-1(2H)-yl)methyl)benzyl)nicotinamido)acetic acid]
4 | ≤ 100 | ≤ 100 | CS(=O)(=O)c1cc(Cc2cc(C(=O)NCc3cnc4[nH]cc(Cl)c4c3)ccn2)ccc1Cn1ccccc1=O [Example 29]
5 | 1000 to 10000 |  | O=C(NCc1n[nH]c2ccc(Cl)cc12)c1cncc(Cc2ccccc2C(F)(F)F)c1 [Example 1, N-((5-chloro-1H-indazol-3-yl)methyl)-5-(2-(trifluoromethyl)benzyl)nicotinamide]
6 | ≤ 100 |  | Cc1cc(N)nc(C)c1CNC(=O)c1ccnc(Cc2ccc3ncc(Cl)cc3c2)n1 [Example 24, N-((6-amino-2,4-dimethylpyridin-3-yl)methyl)-2-((3-chloroquinolin-6-yl)methyl)pyrimidine-4-carboxamide]
7 | ≤ 100 | ≤ 100 | Cc1cc(N)nc(C)c1CNC(=O)c1cncc(Cc2ccc3ncc(Cl)cc3c2)c1 [Example 22, N-((6-amino-2,4-dimethylpyridin-3-yl)methyl)-5-((3-chloroquinolin-6-yl)methyl)nicotinamide]
8 | 1000 to 10000 |  | NC(=O)c1ccccc1Cc1cncc(C(=O)NCc2n[nH]c3ccc(Cl)cc23)c1 [Example 6, 5-(2-carbamoylbenzyl)-N-((5-chloro-1H-indazol-3-yl)methyl)nicotinamide]
9 | ≤ 100 |  | CS(=O)(=O)c1cc(Cc2cc(C(=O)NCc3n[nH]c4ccc(Cl)cc34)ccn2)ccc1Cn1ccccc1=O [Example 30, N-((5-chloro-1H-indazol-3-yl)methyl)-2-(3-(methylsulfonyl)-4-((2-oxopyridin-1(2H)-yl)methyl)benzyl)isonicotinamide]
10 | > 10000 |  | Cc1cc(C#N)ccc1CNC(=O)c1ccnc(Cc2ccc(Cn3ccccc3=O)cc2)c1 [Example 19, N-(4-cyano-2-methylbenzyl)-2-(4-((2-oxopyridin-1(2H)-yl)methyl)benzyl)isonicotinamide]
11 | 1000 to 10000 |  | NC(=O)c1ccc(CNC(=O)c2cncc(Cc3ccc(Cn4ccccc4=O)cc3)c2)cc1 [Example 14, N-(4-carbamoylbenzyl)-5-(4-((2-oxopyridin-1(2H)-yl)methyl)benzyl)nicotinamide]
12 | ≤ 100 | ≤ 100 | Cc1cc(N)nc(C)c1CNC(=O)c1cncc(Cc2ccc3ncc(Cl)cc3c2)n1 [Example 25, N-((6-amino-2,4-dimethylpyridin-3-yl)methyl)-6-((3-chloroquinolin-6-yl)methyl)pyrazine-2-carboxamide]
13 | ≤ 100 | ≤ 100 | Cc1cc(N)nc(C)c1CNC(=O)c1ccc(=O)n(Cc2ccc3ncc(Cl)cc3c2)c1 [Example 21, N-((6-amino-2,4-dimethylpyridin-3-yl)methyl)-1-((3-chloroquinolin-6-yl)methyl)-6-oxo-1,6-dihydropyridine-3-carboxamide]
